Measured values published in patent publication US20090118135A1, “METHODS AND COMPOUNDS FOR REGULATING APOPTOSIS” (The Burnham Institute, priority 2007, published 2009).
Where two headings read alike, the source gives them in different places.

What was measured:
[1] = target: T1, GST-Bcl-B (Homo sapiens, UniProt Q9HD36); test: Bcl-B/FITC-TR3-r8 fluorescence polarization competition (displacement) assay, HTS and dose-response
T1 sequence (Q9HD36 1-182 limits assumed): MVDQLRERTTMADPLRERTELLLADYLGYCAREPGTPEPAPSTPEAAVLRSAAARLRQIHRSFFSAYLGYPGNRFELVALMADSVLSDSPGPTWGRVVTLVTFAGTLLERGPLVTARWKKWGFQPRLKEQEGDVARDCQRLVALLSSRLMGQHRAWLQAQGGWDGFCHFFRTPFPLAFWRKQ

[2] = target: T2, GST-Bfl-1 (Homo sapiens, UniProt Q16548); test: Bfl-1/FITC-Bid BH3 competitive fluorescence polarization assay; format: binding; settings: primary HTS hits, MLSCN library (PubChem SIDs), Table 5B
T2 construct: lacking their C-terminal transmembrane domains (about the last 20 amino acids) (“ΔTM”); made in house; host or cells: XL-1 Blue E. coli, pGEX 4T-1
T2 sequence (Q16548 1-155 limits assumed): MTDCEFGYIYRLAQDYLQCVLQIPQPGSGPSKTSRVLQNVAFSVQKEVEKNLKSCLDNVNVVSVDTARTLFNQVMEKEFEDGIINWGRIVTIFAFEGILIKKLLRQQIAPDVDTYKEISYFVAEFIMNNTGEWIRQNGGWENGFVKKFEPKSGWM

[3] = Table 8, NCI Structural library, Binding Assay, FP, Concentration 0.02 uM
[4] = read-out: Result Value (Result Type % Inhibition), BCL-b/TR3
[5] = Table 7, NCI Mechanistic library, Binding Assay, FP, Concentration 0.02 uM
[6] = read-out: Result Value (Result Type % Inhibition), BCL-b/TR3, Table 7, NCI Mechanistic library, Binding Assay, FP, Concentration 0.02 uM
[7] = LOPAC1280 library primary screen
[8] = LOPAC1280 library, fluorescence intensity normalized to plate negative controls
[9] = read-out: Result Value (% Inhibition)
[10] = read-out: Result Value (Result Type % Inhibition), BCL-b/TR3, Table 8, NCI Structural library, Binding Assay, FP, Concentration 0.02 uM

Cc1ccc(/N=N/c2c(O)ccc3cc(S(=O)(=O)O)ccc23)cc1 [Compound 7814]
F Ratio [1, 3]: 0.28 | Is Hit [1, 3]: Yes | inhibition at 0.02 µM [1, 4]: 54.3%

CN(C)C1C(O)=C(C(N)=O)C(=O)C2(O)C(O)=C3C(=O)c4c(O)cccc4C(C)(O)C3CC12.CS(=O)(=O)O (centres unmarked) [Compound 69343]
F Ratio [1, 3]: 0.3746 | Is Hit [1, 3]: Yes | inhibition at 0.02 µM [1, 4]: 93.4%

COc1ccc2nc3cc(Cl)ccc3c(Nc3ccc(O)c(CN4CCN(C)CC4)c3)c2c1.Cl [Compound 130813]
F Ratio [1, 3]: 0.07696 | Is Hit [1, 3]: Yes | inhibition at 0.02 µM [1, 4]: 133%

O=S(=O)(O)c1cc(/N=N/c2cc(S(=O)(=O)O)c3ccccc3c2O)ccc1/C=C/c1ccc(/N=N/c2cc(S(=O)(=O)O)c3ccccc3c2O)cc1S(=O)(=O)O [Compound 34931]
F Ratio [1, 5]: 0.0509 | Is Hit [1, 5]: Yes | inhibition at 0.02 µM [1, 4]: 80.3%

COC1/C2=C(\O)C3(C)Oc4c5c(O)c6c(O)c(c(CN(C)C)c(O)c6c4C3=O)NC(=O)/C(C)=C\C=C/CC(O)C(C)C(O5)C(C)C(OC2=O)C1C (centres unmarked) [Compound 145612]
F Ratio [1, 3]: 0.9609 | Is Hit [1, 3]: Yes | inhibition at 0.02 µM [1, 4]: 54%

CNc1ccc(Nc2ccc(S(=O)(=O)O)cc2)c2c1C(=O)c1ccccc1C2=O [Compound 128437]
F Ratio [1, 3]: 0.9929 | Is Hit [1, 3]: Yes | inhibition at 0.02 µM [1, 4]: 166%

CCN(CC)Cc1cc(/N=N/c2c(O)ccc3c(/N=N/c4ccc(O)c(CN(CC)CC)c4)c(O)ccc23)ccc1O [Compound 359463]
F Ratio [1, 5]: 0.08773 | Is Hit [1, 5]: Yes | inhibition at 0.02 µM [1, 4]: 94.9%

C=CCN1C(=O)NC(=O)/C(=C/c2cccn2-c2cccc([N+](=O)[O-])c2)C1=O [Compound 5987504]
IC50 ([1]; Bcl-B IC50 (g/L)): 5.59 µM | IC50 ([1]; Bcl-B IC50 (uM)): 5.36 µM | Bcl-B H Coefficient ([1]; Hill coefficient of Bcl-B dose-response curve): 1.773

Oc1cc(O)c2c(c1)OC(c1ccc(O)c(O)c1)C(OC1(c3cc(O)c(O)c(O)c3)Oc3cc(O)cc(O)c3C(O)C1O)C2 (centres unmarked) [Compound 143101]
F Ratio [1, 3]: 0.1869 | Is Hit [1, 3]: Yes | inhibition at 0.02 µM [1, 4]: 82.8%

O=C1c2cccc(NCCCNCCO)c2C(=O)c2cccc(NCCCNCCO)c21 [Compound 363998]
F Ratio [1, 5]: 0.2213 | Is Hit [1, 5]: Yes | inhibition at 0.02 µM [1, 4]: 115%

Nc1ccc2c(c1)CN1C(=O)c3ccccc3C1=N2 [Compound 320846]
F Ratio [1, 5]: 1.4904 | Is Hit [1, 5]: Yes | inhibition at 0.02 µM [1, 6]: 60.7%

O=S(=O)(O)c1ccc(NN(c2c(O)ccc3ccccc23)S(=O)(=O)O)cc1 [Compound 9600]
F Ratio [1, 3]: 0.4361 | Is Hit [1, 3]: Yes | inhibition at 0.02 µM [1, 4]: 50.7%

O=[N+]([O-])c1cc(O)c(O)c([N+](=O)[O-])c1 [Compound D-131]
Result Value (% Inhibition) ([1]; LOPAC1280 (Sigma-Aldrich) library, BCL-b/TR3 Binding Assay, FP, Concentration 0.02 uM, % competition): 68.095% | Is Hit [1, 7]: Yes | F Ratio [1, 8]: 0.1464

O=C(c1cc(O)c(O)c([N+](=O)[O-])c1)c1ccccc1F [Compound R-108]
Is Hit [1, 7]: Yes | F Ratio [1, 8]: 0.1164 | inhibition at 0.02 µM [1, 9]: 69.6%

CC(=O)O.Cc1c2cc[n+](CCN3CCCCC3)cc2c(C)c2c1[nH]c1ccc(O)cc12 [Compound 311153]
F Ratio [1, 5]: 0.275 | Is Hit [1, 5]: Yes | F Ratio [1, 3]: 0.3973 | Is Hit [1, 3]: Yes | inhibition at 0.02 µM [1, 6]: 120% | inhibition at 0.02 µM [1, 10]: 128%

[O-][n+]1c2c([n+]([O-])c3ccccc31)-c1cccc3cccc-2c13 [Compound 60309]
F Ratio [1, 5]: 1.4371 | Is Hit [1, 5]: Yes | inhibition at 0.02 µM [1, 4]: 72.3%

Nc1c(S(=O)(=O)O)cc(Nc2ccc(Nc3nc(Cl)nc(Nc4ccc(S(=O)(=O)O)cc4)n3)c(S(=O)(=O)O)c2)c2c1C(=O)c1ccccc1C2=O [Compound R-115]
Is Hit [1, 7]: Yes | F Ratio [1, 8]: 0.1652 | inhibition at 0.02 µM [1, 9]: 80.8%

Nc1ccc(-c2ccc(Nc3cc(S(=O)(=O)O)c(N)c4c3C(=O)c3ccccc3C4=O)cc2)c(S(=O)(=O)O)c1 [Compound 125910]
F Ratio [1, 3]: 0.2439 | Is Hit [1, 3]: Yes | inhibition at 0.02 µM [1, 4]: 123%

CN(C)C1C(O)=C(C(=O)NCN2CCCC2)C(=O)C2(O)C(O)=C3C(=O)c4c(O)cccc4C(C)(O)C3CC12 (centres unmarked) [Compound 50352]
F Ratio [1, 3]: 0.2153 | Is Hit [1, 3]: Yes | inhibition at 0.02 µM [1, 10]: 122%

O=C1OC(c2ccccc2)=N/C1=C\c1ccc(N(CCCl)CCCl)cc1 [Compound 104117]
F Ratio [1, 5]: 1.2733 | Is Hit [1, 5]: Yes | inhibition at 0.02 µM [1, 4]: 62.8%

O=[N+]([O-])c1ccc(S(=O)(=O)Cc2ccccc2)c2nonc12 [Compound 228148]
F Ratio [1, 3]: 1.1364 | Is Hit [1, 3]: Yes | inhibition at 0.02 µM [1, 4]: 73.4%

Cc1ccc(NC(=O)Nc2cccs2)c(Cl)c1 [Compound 14734202]
% Activity [2]: 66.3% | FRatio [2]: 1.39

O=C(CSc1nnc(-c2ccco2)c(-c2ccco2)n1)Nc1ccccc1 [Compound 860234]
% Activity [2]: 71.5% | FRatio [2]: 1.17

COc1ccc(OC)c(N2C(=O)[C@@H]3C(c4ccccc4Cl)=NO[C@@H]3C2=O)c1 [Compound 864036]
% Activity [2]: 68.5% | FRatio [2]: 0.89

Cc1ccc(C)n1Cc1ccc(C(=O)O)cc1 [Compound 858431]
% Activity [2]: 76.8% | FRatio [2]: 0.63

CC(C)CN(C(=O)COC(=O)c1cc2c(s1)CCC2)C1CCS(=O)(=O)C1 (centres unmarked) [Compound 3714271]
% Activity [2]: 53.1% | FRatio [2]: 0.67

Cn1c(=N)c(S(=O)(=O)c2ccccc2)cc2c(=O)n3ccccc3nc21 [Compound 859963]
% Activity [2]: 50.4% | FRatio [2]: 1.49

C=CCn1c(SCC(=O)OC)nc2sc3c(c2c1=O)CCN(C)C3 [Compound 856802]
% Activity [2]: 53.2% | FRatio [2]: 1.23

Cc1ccc(OCCSc2nnc(-c3ccncc3)n2C)cc1 [Compound 3712590]
% Activity [2]: 68.9% | FRatio [2]: 0.91

Cc1ccc(C)n1C(Cc1ccccc1)C(=O)O (centres unmarked) [Compound 852148]
% Activity [2]: 82.9% | FRatio [2]: 1.37

CCS(=O)(=O)N1Cc2ccccc2CC1C(=O)N1CCN(c2cccc(C)c2C)CC1 (centres unmarked) [Compound 3712504]
% Activity [2]: 54.7% | FRatio [2]: 0.25

COc1ccccc1N1CCN(C(=O)c2cc3c(s2)CCC3)CC1 [Compound 14746697]
% Activity [2]: 74.1% | FRatio [2]: 0.9

N#Cc1ccccc1CN1C(=O)S/C(=C/c2cccn2-c2ccc(C(=O)O)cc2)C1=O [Compound 17385953]
% Activity [2]: 63.5% | FRatio [2]: 0.75

O=C(NCc1ccco1)c1c2c(nc3ccccc13)CCC2 [Compound 3715091]
% Activity [2]: 62.4% | FRatio [2]: 0.86

O=C(COC(=O)CN1C(=O)c2ccccc2C1=O)Nc1ncc(Cl)cc1Cl [Compound 3711621]
% Activity [2]: 58.7% | FRatio [2]: 1.36

Oc1ccc(-c2cn3c(n2)SCC3)cc1O [Compound 14746201]
% Activity [2]: 77.7% | FRatio [2]: 0.91

CC(=O)c1c(COC(=O)c2ccco2)nc2ccccc2[n+]1[O-] [Compound 863818]
% Activity [2]: 68.3% | FRatio [2]: 0.88

COc1ccccc1NCCC(=O)OCC(=O)NCc1ccco1 [Compound 3712399]
% Activity [2]: 85.2% | FRatio [2]: 0.95

O=C1c2ccccc2CC1Sc1nnc(-c2ccccn2)o1 (centres unmarked) [Compound 842657]
% Activity [2]: 65.7% | FRatio [2]: 1.17

O=C1c2ccccc2C(=O)c2c1cccc2N1CCN(CCO)CC1 [Compound 17403435]
% Activity [2]: 56.9% | FRatio [2]: 1.3

Cc1ccc(S(=O)(=O)Cc2ccc(C(=O)N3CCc4ccccc4C3)o2)cc1 [Compound 14733336]
% Activity [2]: 60.8% | FRatio [2]: 0.93

O=C(Cc1cnn(-c2ccccc2)c1)c1ccc(O)c(O)c1O [Compound 14732615]
% Activity [2]: 57.8% | FRatio [2]: 0.74

COc1cc(-c2nnc(SCc3cc(=O)oc4cc(O)c(O)cc34)o2)cc(OC)c1OC [Compound 17385711]
% Activity [2]: 68.3% | FRatio [2]: 0.7

COc1ccc(NC(=O)c2cnn3c(C(F)(F)F)cc(-c4ccco4)nc23)cc1OC [Compound 7974080]
% Activity [2]: 52% | FRatio [2]: 0.9

CCn1c(SC(C)C(=O)O)nc2sc3c(c2c1=O)CCC3 (centres unmarked) [Compound 856662]
% Activity [2]: 95.1% | FRatio [2]: 0.59

O=[N+]([O-])c1cc(-c2ccc(/C=N/c3nc4ccccn4c3-c3ccco3)o2)ccc1Cl [Compound 17388349]
% Activity [2]: 60.5% | FRatio [2]: 0.99

Cc1cc(C)c(NC(=O)CN(c2ccccc2)S(=O)(=O)N(C)C)c(C)c1 [Compound 14746364]
% Activity [2]: 90.5% | FRatio [2]: 0.65

CC(=O)C1=C(O)C(=O)N(Cc2ccccc2)C1c1ccco1 (centres unmarked) [Compound 851207]
% Activity [2]: 52.6% | FRatio [2]: 0.52

CN(C)c1cccc(C(=O)OCc2cc(=O)oc3cc(O)ccc23)c1 [Compound 17388495]
% Activity [2]: 71.7% | FRatio [2]: 1
